Inconclusive results and toxic doses are left out. How the source made its calls: active means survival T/C of 150% or more; inactive means T/C below 125% in these data.
Test system: CD2F1 mice, L1210 leukemia ip, survival T/C
Experiment: NCI In Vivo Anticancer Drug Screen. Data for tumor model L1210 Leukemia (intraperitoneal) in CD2F1 (CDF1) mice
Conditions: endpoint: mean survival time, higher = longer survival
Procedure, shortened: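 Mice carrying a transplanted tumor received test compound or vehicle alone. The value is the measurement in the treated group divided by that in the vehicle-treated control group.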

[1] = dose: 100.0 mg/kg/injection, schedule: Q04DX003 (ip), vehicle: saline with Tween-80
[2] = dose: 200.0 mg/kg/injection, schedule: Q04DX003 (ip), vehicle: saline with Tween-80
[3] = dose: 100.0 mg/kg/injection, schedule: Q01DX001 (ip), vehicle: saline with Tween-80
[4] = dose: 200.0 mg/kg/injection, schedule: Q01DX001 (ip), vehicle: saline with Tween-80
[5] = dose: 400.0 mg/kg/injection, schedule: Q01DX001 (ip), vehicle: saline with Tween-80
[6] = dose: 100.0 mg/kg/injection, schedule: Q01DX009 (ip), vehicle: saline with Tween-80
[7] = dose: 200.0 mg/kg/injection, schedule: Q01DX009 (ip), vehicle: saline with Tween-80
[8] = dose: 400.0 mg/kg/injection, schedule: Q01DX009 (ip), vehicle: saline with Tween-80
[9] = dose: 400.0 mg/kg/injection, schedule: Q04DX003 (ip), vehicle: saline with Tween-80
[10] = dose: 100.0 mg/kg/injection, schedule: Q01DX001 (ip), vehicle: saline
[11] = dose: 200.0 mg/kg/injection, schedule: Q01DX001 (ip), vehicle: saline
[12] = dose: 400.0 mg/kg/injection, schedule: Q01DX001 (ip), vehicle: saline

Measured: T/C

Cn1c(=O)c2[nH]c(-c3ccc(Cl)cc3)nc2n(C)c1=O
inactive: dose: 12.5 mg/kg/injection, schedule: Q01DX005 (ip), vehicle: other 89 % of control | dose: 25.0 mg/kg/injection, schedule: Q01DX005 (ip), vehicle: other 89 % of control | dose: 50.0 mg/kg/injection, schedule: Q01DX005 (ip), vehicle: other 93 % of control | dose: 100.0 mg/kg/injection, schedule: Q01DX005 (ip), vehicle: other 89 % of control | dose: 200.0 mg/kg/injection, schedule: Q01DX005 (ip), vehicle: other 95 % of control

[I][Pt+2][I].[NH-]c1ccc(F)cc1.[NH-]c1ccc(F)cc1
inactive: dose: 3.13 mg/kg/injection, schedule: Q04DX003 (ip), vehicle: distilled water + Tween-80 108 % of control | dose: 6.25 mg/kg/injection, schedule: Q04DX003 (ip), vehicle: distilled water + Tween-80 108 % of control | dose: 12.5 mg/kg/injection, schedule: Q04DX003 (ip), vehicle: distilled water + Tween-80 98 % of control | dose: 25.0 mg/kg/injection, schedule: Q04DX003 (ip), vehicle: distilled water + Tween-80 101 % of control | dose: 50.0 mg/kg/injection, schedule: Q04DX003 (ip), vehicle: distilled water + Tween-80 108 % of control | dose: 100.0 mg/kg/injection, schedule: Q04DX003 (ip), vehicle: distilled water + Tween-80 87 % of control

CCCCC(OC(=O)Nc1cccc2ccccc12)C(C)C (stereo not drawn)
inactive: [1] 91 % of control | [2] 88 % of control

Cc1c(C)c(C)c([N+](=O)[O-])c([N+](=O)[O-])c1C
inactive: dose: 50.0 mg/kg/injection, schedule: Q01DX005 (ip), vehicle: saline with Tween-80 101 % of control | dose: 100.0 mg/kg/injection, schedule: Q01DX005 (ip), vehicle: saline with Tween-80 101 % of control | dose: 200.0 mg/kg/injection, schedule: Q01DX005 (ip), vehicle: saline with Tween-80 101 % of control

CC(=O)Nc1ccc(Cc2[nH]c(=O)[nH]c(=O)c2Br)cc1[N+](=O)[O-]
inactive: [3] 95 % of control | [4] 91 % of control | [5] 89 % of control

CCCCNC(C)(C)C(SSSC(c1ccc(C(F)(F)F)cc1)C(C)(C)NCCCC)c1ccc(C(F)(F)F)cc1 (stereo not drawn)
inactive: dose: 100.0 mg/kg/injection, schedule: Q04DX003 (ip), vehicle: saline 92 % of control | dose: 200.0 mg/kg/injection, schedule: Q04DX003 (ip), vehicle: saline 94 % of control | dose: 400.0 mg/kg/injection, schedule: Q04DX003 (ip), vehicle: saline 100 % of control

S=C(Sc1ccccc1)Sc1ccccc1
inactive: [6] 88 % of control | [1] 92 % of control | [7] 95 % of control | [2] 103 % of control | [8] 91 % of control | [9] 104 % of control

CC(=O)Nc1nn(C)c(C#N)c1C#N
inactive: dose: 37.5 mg/kg/injection, schedule: Q04DX002 (ip), vehicle: saline with Tween-80 106 % of control | dose: 75.0 mg/kg/injection, schedule: Q04DX002 (ip), vehicle: saline with Tween-80 106 % of control | dose: 150.0 mg/kg/injection, schedule: Q04DX002 (ip), vehicle: saline with Tween-80 102 % of control

CCCCNC(=O)CCC(=O)O
inactive: [6] 109 % of control | [1] 99 % of control | [7] 94 % of control | [2] 99 % of control | [8] 96 % of control | [9] 95 % of control

COc1ccc(C(=O)Nc2ccc(Br)cc2)cc1
inactive: dose: 100.0 mg/kg/injection, schedule: Q01DX009 (ip), vehicle: saline 93 % of control | dose: 200.0 mg/kg/injection, schedule: Q01DX009 (ip), vehicle: saline 108 % of control | dose: 400.0 mg/kg/injection, schedule: Q01DX009 (ip), vehicle: saline 98 % of control

Cc1c(Cl)cccc1NC(=O)CCl
inactive: [1] 100 % of control | [2] 93 % of control | [9] 90 % of control

CCOC(OCC)c1cc(=O)[nH]c(NC(C)=O)n1
inactive: [10] 95 % of control | [11] 103 % of control | [12] 95 % of control

ClC(Cl)(Cl)C1OCCO1
inactive: [6] 95 % of control | [1] 97 % of control | [7] 104 % of control | [2] 102 % of control | [8] 91 % of control | [9] 97 % of control

O=c1[nH]n(Cc2ccccc2)c2ccccc12
inactive: dose: 25.0 mg/kg/injection, schedule: Q04DX003 (ip), vehicle: Klucel (hydroxypropylcellulose) (HPC) 101 % of control | dose: 50.0 mg/kg/injection, schedule: Q04DX003 (ip), vehicle: Klucel (hydroxypropylcellulose) (HPC) 106 % of control | dose: 100.0 mg/kg/injection, schedule: Q04DX003 (ip), vehicle: Klucel (hydroxypropylcellulose) (HPC) 106 % of control

CCCCCCCCCCCCCC(CCCCCCCCCC)CCCCCCCCCC
inactive: [3] 98 % of control | [4] 103 % of control | [5] 104 % of control

CC(=O)NCc1ccc2c(c1)OCO2
inactive: [3] 98 % of control | [4] 111 % of control | [5] 106 % of control

Cc1cc(N)c(S(N)(=O)=O)c([N+](=O)[O-])c1
inactive: [3] 100 % of control | [4] 97 % of control | [5] 94 % of control

CCCCCCCC(=O)Nc1ncnc2c1ncn2C1OC(COC(C)=O)C(OC(C)=O)C1OC(C)=O (stereo not drawn)
inactive: dose: 12.5 mg/kg/injection, schedule: Q01DX005 (ip), vehicle: distilled water + Tween-80 98 % of control | dose: 25.0 mg/kg/injection, schedule: Q01DX005 (ip), vehicle: distilled water + Tween-80 91 % of control | dose: 50.0 mg/kg/injection, schedule: Q01DX005 (ip), vehicle: distilled water + Tween-80 98 % of control | dose: 100.0 mg/kg/injection, schedule: Q01DX005 (ip), vehicle: distilled water + Tween-80 94 % of control

OC1(O)CCN(Cc2ccccc2)CC1
inactive: dose: 100.0 mg/kg/injection, schedule: Q04DX003 (ip), vehicle: acetone 94 % of control | dose: 200.0 mg/kg/injection, schedule: Q04DX003 (ip), vehicle: acetone 96 % of control | dose: 400.0 mg/kg/injection, schedule: Q04DX003 (ip), vehicle: acetone 94 % of control

OCc1cc2ccccc2cc1Br
inactive: dose: 50.0 mg/kg/injection, schedule: Q01DX001 (ip), vehicle: saline 89 % of control | [10] 93 % of control | [11] 95 % of control | [12] 100 % of control

CCCCCCCCCCCCCCCC(=O)N(CCCN(C)C)c1ccc(N(CCCN(C)C)C(=O)CCCCCCCCCCCCCCC)cc1
inactive: dose: 1.5 mg/kg/injection, schedule: Q01DX009 (ip), vehicle: saline sonified 98 % of control | dose: 3.0 mg/kg/injection, schedule: Q01DX009 (ip), vehicle: saline sonified 101 % of control | dose: 6.0 mg/kg/injection, schedule: Q01DX009 (ip), vehicle: saline sonified 98 % of control

CC1=CC(O)(c2ccccc2)C(C)=CC1=O (stereo not drawn)
inactive: [3] 97 % of control | [4] 97 % of control | [5] 93 % of control

CC(C)(C)OC(=O)NC(Cc1ccc(OCc2ccccc2)cc1)C(=O)O (stereo not drawn)
inactive: [1] 95 % of control | [2] 101 % of control

O=C(c1ccccc1)c1cccc(C(Br)Br)c1
inactive: [6] 95 % of control | [7] 93 % of control | [8] 101 % of control

O=c1cc(Cc2ccccc2)[nH]c(=S)[nH]1
inactive: dose: 100.0 mg/kg/injection, schedule: Q01DX001 (ip), vehicle: Klucel (hydroxypropylcellulose) (HPC) 94 % of control | dose: 200.0 mg/kg/injection, schedule: Q01DX001 (ip), vehicle: Klucel (hydroxypropylcellulose) (HPC) 95 % of control | dose: 400.0 mg/kg/injection, schedule: Q01DX001 (ip), vehicle: Klucel (hydroxypropylcellulose) (HPC) 89 % of control

O=C(OC1C=Cc2ccccc21)c1ccc([N+](=O)[O-])cc1 (stereo not drawn)
inactive: [3] 97 % of control | [4] 90 % of control | [5] 97 % of control

CCN(CC)CCN1CC2CC=CCC2C1 (stereo not drawn)
inactive: [6] 96 % of control

Source: PubChem BioAssay AID256 (DTP/NCI, 2004)
